# Read-outs that look alike come from different tables or passages of the source.
# What was measured:
# GLP-1R = GLP-1R (Homo sapiens, UniProt P43220); assay: GLP-1R activation: cAMP increase in CHO cells stably expressing GLP-1R; assay type: cell-based
# [1] = Microsomal stability, human liver microsomes (predicted hepatic clearance); settings: predicted from in vitro microsomal stability data
# [2] = cAMP increase, CHO cells stably expressing GLP-1R, 10 point dose response, 30 minutes incubation, read-out: EC50
# Chain of GLP-1R (P43220 24-463): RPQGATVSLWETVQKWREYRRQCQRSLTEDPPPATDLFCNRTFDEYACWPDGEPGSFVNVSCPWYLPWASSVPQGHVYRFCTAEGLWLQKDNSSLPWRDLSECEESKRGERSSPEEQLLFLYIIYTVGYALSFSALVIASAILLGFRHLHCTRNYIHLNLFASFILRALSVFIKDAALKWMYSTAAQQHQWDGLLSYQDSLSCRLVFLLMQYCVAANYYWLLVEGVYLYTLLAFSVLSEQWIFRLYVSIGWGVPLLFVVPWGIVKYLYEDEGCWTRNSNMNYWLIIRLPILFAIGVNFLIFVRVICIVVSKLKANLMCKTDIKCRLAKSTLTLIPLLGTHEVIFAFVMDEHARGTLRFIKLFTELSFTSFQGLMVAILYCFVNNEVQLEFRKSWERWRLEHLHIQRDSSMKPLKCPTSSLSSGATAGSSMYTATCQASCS
Compound,EC50 (GLP-1R; [2]),Predicted Hepatic Clearance (Pred. Cl.) [1],EC50 (GLP-1R; EC50 (nM))
N#Cc1ccc(COc2cccc(-c3cc(F)c(Cc4nc5ccc(C(=O)O)cc5n4[C@@H]4COC[C@@H]4O)cc3F)n2)c(F)c1 [Example 614],0.79 nM,1.83 mL/min/kg,
Cc1nc(Cn2c(Cc3cc(F)c(-c4cccc(OCc5ccc(C#N)cc5F)n4)cc3F)nc3ccc(C(=O)O)cc32)oc1C [Example 615],1420 nM,2.33 mL/min/kg,
Cc1cnc(Cn2c(Cc3cc(F)c(-c4cccc(OCc5ccc(C#N)cc5F)n4)cc3F)nc3ccc(C(=O)O)cc32)o1 [Example 616],26.9 nM,8.33 mL/min/kg,
N#Cc1ccc(COc2nccc(-c3cc(F)c(Cc4nc5c(F)cc(C(=O)O)cc5n4Cc4ncco4)cc3F)n2)c(F)c1 [Example 617],0.55 nM,3.67 mL/min/kg,
CO[C@@H](CO)Cn1c(Cc2cc(F)c(-c3cccc(OCc4ccc(C#N)cc4F)n3)cc2F)nc2ccc(C(=O)O)cc21 [Example 619],3.1 nM,6.67 mL/min/kg,
COC[C@H](Cn1c(Cc2cc(F)c(-c3cccc(OCc4ccc(C#N)cc4F)n3)cc2F)nc2ccc(C(=O)O)cc21)OC [Example 620],,6.67 mL/min/kg,7.5 nM
COC[C@@H](Cn1c(Cc2cc(F)c(-c3cccc(OCc4ccc(C#N)cc4F)n3)cc2F)nc2ccc(C(=O)O)cc21)OC [Example 621],,10.7 mL/min/kg,17.4 nM
N#Cc1ccc(COc2nccc(-c3ccc(Cc4nc5ccc(C(=O)O)cc5n4Cc4ncco4)cc3F)n2)c(F)c1 [Example 622],2.68 nM,6.33 mL/min/kg,
N#Cc1ccc(COc2cccc(-c3cc(F)c(Cc4nc5ccc(C(=O)O)cc5n4CC45CC(CCO4)C5)cc3F)n2)c(F)c1 [Example 623],4.04 nM,10.7 mL/min/kg,
N#Cc1ccc(COc2cccc(-c3cc(F)c(Cc4nc5ccc(C(=O)O)cc5n4CC45COC(C4)C5)cc3F)n2)c(F)c1 [Example 624],1.68 nM,5 mL/min/kg,
N#Cc1ccc(COc2cccc(-c3ccc(Cc4nc5c(F)cc(C(=O)O)cc5n4Cc4ncco4)c(F)c3)n2)c(F)c1 [Example 625],0.63 nM,2.67 mL/min/kg,
N#Cc1ccc(COc2nccc(-c3ccc(Cc4nc5ccc(C(=O)O)cc5n4CC45CC(CO4)C5)cc3F)n2)c(F)c1 [Example 626],23.9 nM,7.83 mL/min/kg,
COC1(Cn2c(Cc3cc(F)c(-c4cccc(OCc5ccc(C#N)cc5F)n4)cc3F)nc3ccc(C(=O)O)cc32)CCOC1 (stereo not drawn) [Example 627],2.19 nM,7.83 mL/min/kg,
N#Cc1ccc(COc2cccc(-c3cc(F)c(Cc4nc5ccc(C(=O)O)cc5n4CCOC4CCC4)cc3F)n2)c(F)c1 [Example 628],13.4 nM,3.17 mL/min/kg,
N#Cc1ccc(COc2cccc(-c3cc(F)c(Cc4nc5ccc(C(=O)O)cc5n4CCOC4CC4)cc3F)n2)c(F)c1 [Example 629],1.26 nM,1.83 mL/min/kg,
N#Cc1ccc(COc2cccc(-c3cc(F)c(Cc4nc5ccc(C(=O)O)cc5n4[C@H]4CCNC4=O)cc3F)n2)c(F)c1 [Example 630],39.4 nM,2.67 mL/min/kg,
N#Cc1ccc(COc2cccc(-c3cc(F)c(Cc4nc5ccc(C(=O)O)cc5n4[C@@H]4CCNC4=O)cc3F)n2)c(F)c1 [Example 631],74.9 nM,3 mL/min/kg,
N#Cc1ccc(COc2cccc(-c3cc(F)c(Cc4nc5ccc(C(=O)O)c(F)c5n4C[C@@H]4CCO4)cc3F)n2)c(F)c1 [Example 632],0.24 nM,1.83 mL/min/kg,
N#Cc1ccc(COc2cccc(-c3ccc(Cc4nc5c(F)cc(C(=O)O)cc5n4C[C@@H]4CCO4)cc3)n2)c(F)c1 [Example 633],0.17 nM,4.83 mL/min/kg,
COCCn1c(Cc2cc(F)c(-c3cccc(OCc4ccc(C(F)F)cc4F)n3)cc2F)nc2c(F)cc(C(=O)O)cc21 [Example 635],0.46 nM,1.83 mL/min/kg,
COC1(Cn2c(Cc3cc(F)c(-c4cccc(OCc5ccc(C#N)cc5F)n4)cc3F)nc3ccc(C(=O)O)cc32)COC1 [Example 636],1.27 nM,6.5 mL/min/kg,

Compound,EC50 (GLP-1R; [2]),Predicted Hepatic Clearance (Pred. Cl.) [1],EC50 (GLP-1R; EC50 (nM))
COCC1(Cn2c(Cc3cc(F)c(-c4cccc(OCc5ccc(C#N)cc5F)n4)cc3F)nc3ccc(C(=O)O)cc32)CC1 [Example 638],2.24 nM,1.83 mL/min/kg,
CN1CCO[C@H](Cn2c(Cc3cc(F)c(-c4cccc(OCc5ccc(C#N)cc5F)n4)cc3F)nc3ccc(C(=O)O)cc32)C1 [Example 639],78.2 nM,5 mL/min/kg,
N#Cc1ccc(COc2cccc(-c3cc(F)c(Cc4nc5ccc(C(=O)O)cc5n4CC4CCCCO4)cc3F)n2)c(F)c1 (stereo not drawn) [Example 640],16.6 nM,8.5 mL/min/kg,
N#Cc1ccc(COc2cccc(-c3cc(F)c(Cc4nc5ccc(C(=O)O)cc5n4C[C@H]4COCCO4)cc3F)n2)c(F)c1 [Example 641],65.9 nM,2.83 mL/min/kg,
N#Cc1ccc(COc2cccc(-c3cc(F)c(Cc4nc5ccc(C(=O)O)cc5n4C[C@@H]4COCCO4)cc3F)n2)c(F)c1 [Example 642],5.14 nM,2.67 mL/min/kg,
O=C(O)c1cc(F)c2nc(Cc3cc(F)c(-c4cccc(OCc5ccc(C(F)F)cc5F)n4)cc3F)n(C[C@@H]3CCO3)c2c1 [Example 643],0.03 nM,5 mL/min/kg,
N#Cc1ccc(COc2nccc(-c3cc(F)c(Cc4nc5c(F)cc(C(=O)O)cc5n4CC45CC(CO4)C5)cc3F)n2)c(F)c1 [Example 644],0.69 nM,8 mL/min/kg,
N#Cc1ccc(COc2nccc(-c3cc(F)c(Cc4nc5ccc(C(=O)O)cc5n4CC45CC(CO4)C5)cc3F)n2)c(F)c1 [Example 645],2.05 nM,9.17 mL/min/kg,
O=C(O)c1cc(F)c2nc(Cc3ccc(-c4cccc(OCc5ccc(C(F)F)cc5F)n4)cc3F)n(CC34CC(CO3)C4)c2c1 [Example 646],1.78 nM,5.83 mL/min/kg,
O=C(O)c1ccc2nc(Cc3ccc(-c4cccc(OCc5ccc(C(F)F)cc5F)n4)cc3F)n(CC34CC(CO3)C4)c2c1 [Example 647],3.02 nM,3.5 mL/min/kg,
O=C(O)c1cc(F)c2nc(Cc3ccc(-c4cccc(OCc5ccc(C(F)F)cc5F)n4)cc3F)n(C[C@@H]3CCO3)c2c1 [Example 648],0.09 nM,2.33 mL/min/kg,
N#Cc1ccc(COc2cccc(-c3cc(F)c(Cc4nc5c(F)cc(C(=O)O)cc5n4CC45CC(CO4)C5)cc3F)n2)c(F)c1 [Example 649],0.2 nM,5.83 mL/min/kg,
N#Cc1ccc(COc2nccc(-c3ccc(Cc4nc5c(F)cc(C(=O)O)cc5n4CC45CC(CO4)C5)cc3F)n2)c(F)c1 [Example 650],19.6 nM,11 mL/min/kg,
CN1CCO[C@@H](Cn2c(Cc3cc(F)c(-c4cccc(OCc5ccc(C#N)cc5F)n4)cc3F)nc3ccc(C(=O)O)cc32)C1 [Example 651],2790 nM,3.33 mL/min/kg,
COCC1(Cn2c(Cc3cc(F)c(-c4cccc(OCc5ccc(C#N)cc5F)n4)cc3F)nc3ccc(C(=O)O)cc32)CCCO1 (stereo not drawn) [Example 652],8.79 nM,8 mL/min/kg,
N#Cc1ccc(COc2cccc(-c3cc(F)c(Cc4nc5ccc(C(=O)O)cc5n4CC4CC5(COC5)C4)cc3F)n2)c(F)c1 [Example 653],17 nM,2.67 mL/min/kg,
COCCn1c(Cc2c(F)cc(-c3cccc(OCc4ccc(Cl)nc4)n3)cc2F)nc2ccc(C(=O)O)cc21 [Example 654],24.9 nM,3.5 mL/min/kg,
O=C(O)c1ccc2nc(Cc3ccc(-c4cccc(OCc5ccc(C(F)(F)F)nc5)n4)c(F)c3)n(C[C@@H]3CCO3)c2c1 [Example 655],1.26 nM,5.33 mL/min/kg,
N#Cc1ccc(COc2cccc(-c3ccc(Cc4nc5ccc(C(=O)O)cc5n4C[C@@H]4CCO4)cc3F)n2)cn1 [Example 656],1.52 nM,4.67 mL/min/kg,
COCCn1c(Cc2cc(F)c(-c3cccc(OCc4ccc(C#N)nc4)n3)cc2F)nc2c(F)cc(C(=O)O)cc21 [Example 657],5.88 nM,4 mL/min/kg,
O=C(O)c1cc(F)c2nc(Cc3cc(F)c(-c4cccc(OCc5ccc(Cl)nc5)n4)cc3F)n(C[C@@H]3CCO3)c2c1 [Example 658],0.11 nM,3 mL/min/kg,
